Assay results taken from patent publication US20210386791A1, “METHODS OF CELLULAR REPROGRAMMING” (TissueTech, Inc., priority 2018, published 2021).

Legend:
Type in all cases: cell-based
[1] = system: P10 LNC (human limbal niche cells); experiment: P10 LNC on coated MG with soluble HC-HA/PTX3 with or without AMD3100, LDN-193189 or BMP receptor siRNAs; details: for upregulation of CXCR4 transcript by soluble HC-HA/PTX3: with CXCR4 inhibitor
Experimental: Upon 80% confluence, P10 LNC cultured on coated Matrigel™ (MG) were pre-treated with 0.1% DMSO with or without 20 μg/mL AMD3100 or 100 nM LDN-193189 for 30 min before being trypsinized and seeded at 2×10^5/mL on coated MG in MESCM containing 20 μg/mL of AMD3100 or 100 nM LDN-193189 with 25 μg/mL soluble HC-HA/PTX3 for another 48 h. For the siRNA knockdown, 80% confluent P10 LNC on 6-well coated MG were subjected to transfection by mixing 200 μl of serum-free, antibiotic-free MESCM with 4 μL of HiPerFect siRNA transfection reagent (final dilution, 1:300) and 6 μl of 20 μM of scRNA or siRNAs for BMPR1A, BMPR1B, BMPR2, and ACVR1 at the final concentration of 100 nM, drop-wise, followed by culturing in 1 mL of fresh MESCM at 37° C. for 24 h before soluble HC-HA/PTX3 was added at a final concentration of 25 μg/mL in the MESCM medium.
RNA extract was reverse transcribed to cDNA with reverse-transcribed using High Capacity Reverse Transcription Kit (Applied Biosystems, Foster City, Calif.) using primers listed in Supplementary Table S3. The resultant cDNAs were amplified by specific TaqMan gene expression assay mix and universal PCR master mix in QuantStudio™ 5 Real Time PCR System (ThermoFisher, Santa Clara, Calif.) with real-time RT-PCR profile consisting of 10 min of initial activation at 95° C., followed by 40 cycles of 15 sec denaturation at 95° C., and 1 min annealing and extension at 60° C. The relative gene expression data were analyzed by the comparative CT method (MET). All assays were performed in triplicate. The results were normalized by glyceraldehyde 3-phosphate dehydrogenase (GAPDH) as an internal control.
Single cells of LNC at different passages were harvested with 0.05% trypsin and 1 mM EDTA at 37° C. for 10 min and prepared for cytospin using Cytofuge (StatSpin Inc., Norwood, Mass.) at 1000 rpm for 8 min. Cells were fixed with 4% formaldehyde, pH 7.0, for 15 min at room temperature, permeabilized with 0.2% Triton X-100 in PBS for 15 min and blocked with 2% bovine serum albumin (BSA) for 1 h before incubated with primary antibodies for 16 h at 4° C. After 3 washes with PBS, the corresponding Alexa Fluor-conjugated secondary IgG (all 1:100 dilution) were incubated for 60 min and 3 washing with PBS. After 3 washes with PBS, the second primary antibodies was incubated for 60 min and followed with the corresponding Alex Fluor-conjugated secondary IgG. The nucleus was counterstained with Hoechst 33342 before being analyzed with Zeiss LSM 700 confocal microscope (Carl Zeiss, Thornwood, N.Y.). Corresponding mouse and rabbit sera were used as negative controls for primary monoclonal and polyclonal antibodies, respectively.

[2] = system: human corneal fibroblasts (HCF); experiment: Timing course analysis of SDF1/CXCR4 and BMP signaling in HCF
[3] = system: human corneal fibroblasts (HCF); experiment: Reversal of HCF to keratocytes on immobilized HC-HA/PTX3 with or without SB431542 or AMD3100
Experimental: A total of 86 human corneas from individuals aged 18-76 years and maintained at 4° C. in Optisol (Chiron Vision, Irvine, Calif.) for less than 7 days after death were obtained from the Florida Lions Eye Bank (Miami, Fla.) and handled according to the declaration of Helsinki. HCF were isolated and cultured. Briefly, the sheets of the epithelium and the endothelium were removed from corneas, the stroma sections were cut into cubes of approximately 1 mm3, incubated in 2 mg/ml collagenase for 16 h at 37° C., and then placed in a culture medium consisting of DMEM supplemented with 10% fetal bovine serum containing […]. The culture medium was refreshed twice a week. The cells cultured to passage 3 were used for all experiments. To reverse fibroblasts or myofibroblasts into keratocytes, fibroblasts or myofibroblasts were cultured on immobilized HC-HA/PTX3 in DMEM+10% FBS for 3 days using the samples from the cells on plastic and HA as the controls. Some of the cell cultures were extended to up to 7 days of culture to monitor the expression of α-SMA formation. Total RNAs were extracted using RNeasy Mini Kit (Qiagen) and reverse-transcribed using High Capacity Reverse Transcription Kit (Applied Biosystems). cDNA was amplified by real-time RT-PCR using specific primer-probe mixtures and DNA polymerase in Quant Studio 5 Real-time PCR System (Applied Biosystems). Real-time RT-PCR profile consisted of 10 min of initial activation at 95° C., followed by 40 cycles of 15 s denaturation at 95° C., and 1 min annealing and extension at 60° C. The genuine identity of each PCR product was confirmed by the size determination using 2% agarose gels followed by ethidium bromide staining together with PCR marker according to EC3 Imaging System (BioImaging System, Upland, Calif.). The samples of human corneal fibroblasts, myofibroblasts and corneal keratocytes were air-dried and fixed in 4% formaldehyde, pH 7.0, for 15 min at room temperature, rehydrated in PBS, incubated with 0.2% Triton X-100 for 15 min, and rinsed 3 times with PBS for 5 min each. […] After three washes with PBS, they were incubated with corresponding Alexa-Fluor-conjugated secondary IgG (all 1:100 dilution) for 60 min. The samples were then counterstained with Hoechst 33342 and analyzed in Zeiss LSM 700 confocal microscope (Thornhood, N.Y.). Corresponding mouse and rabbit sera were used as negative controls for primary monoclonal and polyclonal antibodies, respectively. Cell lysates were prepared in RIPA buffer and resolved on 4-15% (w/v) gradient acrylamide gels under denaturing and reducing conditions for Western blotting. The protein extracts were transferred to the nitrocellulose membrane, which was then blocked with 5% (w/v) fat-free milk in TBST [50 mM Tris-HCl, pH 7.5, 150 mM NaCl, 0.05% (v/v) Tween-20], followed by sequential incubation with the specific primary antibody against keratocan and its respective horseradish peroxidase (HRP)-conjugated secondary antibody using β-actin as the loading control. Immunoreactive proteins were detected with Western Lighting Chemiluminescence (PerkinElmer, Waltham, Mass.).

[4] = system: human corneal fibroblasts (HCF); experiment: P3 HCF on plastic with or without immobilized HA or HC-HA/PTX3, with or without TGFβ1: mRNA, ELISA, Western blot, immunostaining; details: with TGFβ1
Experimental: A total of 89 human corneas from individuals aged 18-76 years and maintained at 4° C. in Optisol (Chiron Vision, Irvine, Calif.) for less than 7 days after death were obtained from the Florida Lions Eye Bank (Miami, Fla.) and handled according to the declaration of Helsinki. HCF were isolated and cultured. Epithelial and endothelial cells were removed from corneas, the stroma was cut into cubes of approximately 1 mm^3, incubated in 2 mg/ml collagenase for 16 h at 37° C., and then placed in a culture medium consisting of Dulbecco's modified Eagle's medium (DMEM) supplemented with 10% fetal bovine serum containing […]. The culture medium was changed twice a week. The morphology of the cells was monitored by Nikon Eclipse TS 100 microscope (Melville, N.Y.). Cells cultured to passage 3 (P3) were used for all experiments.
Human corneal fibroblasts (P3) were seeded on plastics with or without immobilized HC-HA/PTX3 complex for 72 h in DMEM+10% FBS, then serum starved for 24 h and treated with or without TGFβ1 for 24 h before being harvested for mRNA quantitation or immunostaining. For determination of protein of TGFβ receptor or p75NTR, the cells were treated with or without TGF-β1 for 48 h before collection of protein samples because the protein expression lags behind mRNA expression. For TGF-β1 ELISA, the cells were treated with or without TGF-β1 for 24 h, and then cultured in the fresh medium for another 24 h. The supernatants were collected for TGFβ1 ELISA. For TGFβ2 and TGFβ3 ELISA, the cells were treated with or without TGFβ1 for 48 h. Certain HCF were seeded on glass in DMEM+10% FBS for 24 h, then in DMEM+ITS (insulin-transferrin-selenium) for 24 h, treated with/without PBS or hyaluronic acid (HA) or HC-HA/PTX3±TGFβ1 (10 ng/ml)±Marimastat (10 μM) or ±DAPT (10 μM) or ±both for 0, 5, 15, 30 and 45 minutes before being harvested for immunostaining of CD44-ICD, JNK1, Cyclin D1 and p75NTR and for 5 minutes before being harvested for Western blotting of cytoplasmic and nuclear CD44-ICD, active MT1-MMP, and active γ-secretase after compartmental separation of the cellular components.
Total RNAs were extracted using RNeasy Mini Kit and were reverse transcribed using High Capacity Reverse Transcription Kit (Applied Biosystems). cDNA obtained was amplified by real-time RT-PCR using specific primer-probe mixtures and DNA polymerase in 7000 Real-time PCR System (Thermo-Fisher Scientific, Carlsbad, Calif.). Real-time RT-PCR profile consisted of 10 minutes of initial activation at 95° C., followed by 40 cycles of 15 seconds denaturation at 95° C., and 1 min annealing and 1 min extension at 60° C. The genuine identity of each PCR product was confirmed by the size determination using 2% agarose gels followed by ethidium bromide staining together with PCR marker according to EC3 Imaging System (BioImaging System, Upland, Calif.).
The Quantikine Human ELISA Kits of TGFβs were used for determination of TGFβs following the manufacturer's instructions (R and D Systems, Minneapolis, Minn.).
HCF, induced human corneal endothelial cells (HCEC), and HCEC monolayer cultures were air-dried and fixed in 4% formaldehyde, pH 7.0, for 15 min at room temperature, rehydrated in PBS, incubated with 0.2% Triton X-100 for 15 min, and rinsed three times with PBS for 5 min each. After incubation with 2% BSA to block non-specific staining for 30 min, they were incubated with the desired first antibody (all at 1:50 dilution) for 16 h at 4° C. After three washes with PBS, they were incubated with corresponding Alexa-Fluor-conjugated secondary IgG (all 1:100 dilutions) for 60 min. The samples were then counterstained with Hoechst 33342 and analyzed with Zeiss LSM 700 confocal microscope (Thornhood, N.Y.). Corresponding mouse and rabbit sera were used as negative controls for primary monoclonal and polyclonal antibodies, respectively. […]

[5] = soluble HC-HA/PTX3 with AMD3100
[6] = HCF on HC-HA/PTX3 with CXCR4 inhibitor

Compound: c1cc(CN2CCCNCCNCCCNCC2)ccc1CN1CCCNCCNCCCNCC1 [AMD3100]
- immunostaining of SDF-1 ([1]; after addition of AMD3100): became negative
- Pax6, p75NTR, NGF, Musashi-1, Msx-1 and FoxD3 transcripts [1, 5]: significant downregulation
- immunofluorescence staining pattern of CXCR4 [1, 5]: reverted to that of 3D MG
- staining of pSmad1/5/8 [1, 5]: deactivated to cytoplasmic staining
- transcript levels of BMP2, BMP4 and BMP6 ([1]; soluble HC-HA/PTX3 with AMD3100, throughout 48 h): aborted
- nuclear Pax6 staining promoted by soluble HC-HA/PTX3 ([1]; with AMD3100): aborted
- cell aggregation promoted by soluble HC-HA/PTX3 ([1]; with AMD3100 20 μg/mL, 60 min): completed aborted
- upregulation of SDF-1 transcript by soluble HC-HA/PTX3 ([1]; with AMD3100, 24 h): completely abolished
- upregulation of CXCR4 transcript by soluble HC-HA/PTX3 ([1]; 24 h): significantly downregulated
- upregulation of CXCR4 transcript by soluble HC-HA/PTX3 ([1]; 48 h): completely aborted
- aggregation and expression of SDF1, CXCR4, BMP4 and BMP6 induced by HC-HA/PTX3 ([2]; with AMD3100): completely blocked
- nuclear translocation of CXCR4 and pSMAD1/5 ([2]; with AMD3100): eliminated
- cell aggregation, mRNA overexpression of SDF1 and CXCR4, CXCR4 nuclear translocation [3, 6]: completely attenuated
- keratocan protein expression [3, 6]: blockade
- transcript expression of BMP4, BMP6, BMPR1A, BMPR1B, BMPR2 and nuclear translocation of pSMAD1/5 [3, 6]: completely nullified

Compound: c1ccc2c(-c3cnn4cc(-c5ccc(N6CCNCC6)cc5)cnc34)ccnc2c1 [LDN-193189]
- transient nuclear translocation of CXCR4 and nuclear Pax6 staining ([1]; BMP signaling suppressed): not affected
- cell aggregation by soluble HC-HA/PTX3 ([1]; BMP signaling suppressed, compared to scRNA control): not affect
- expression level of CXCR4 and SDF-1 ([1]; BMP signaling suppressed, throughout 48 h): no significant difference

Compound: NC(=O)c1ccc(-c2nc(-c3ccc4c(c3)OCO4)c(-c3ccccn3)[nH]2)cc1 [SB431542]
- aggregation, expression of SDF1 and CXCR4 and nuclear translocation of CXCR4 ([2]; HC-HA/PTX3 with SB431542): did not affect
- expression of BMP4 and BMP6 and nuclear translocation of pSMAD1/5 induced by HC-HA/PTX3 ([2]; with SB431542): completely inhibited
- BMP signaling and keratocan mRNA and protein expression ([3]; HCF on HC-HA/PTX3 with BMP inhibitor): completely inhibited

Compound: TGFβ1: exogenous transforming growth factor β1, 10 ng/ml challenge
- NC marker mRNA, p75NTR protein and p75NTR nuclear translocation [4]: upregulated on plastic
